Key:
[1] = cited from earlier work
[2] = PREVLAR trial: adverse events; type: in vivo, human
Excerpt: Of potential significance for OM, decreased rates of several pathognomonic toxicities were seen (see Table 4).
• CTCAEv.4 are a set of criteria for the standardized classification of AEs of drugs used in cancer therapy.

[3] = Arm 1: RRx-001 Pre-treatment + SOC Chemoradiation (N = 12)
[4] = Arm 1: RRx-001 pretreatment + SOC chemoradiation
[5] = Arm 2: RRx-001 Pre-treatment + 2 Concurrent Doses + SOC Chemoradiation (N = 11)
[6] = Arm 2: RRx-001 pretreatment + 2 concurrent doses + SOC chemoradiation
[7] = Arm 3: RRx-001 Pre-treatment + 6 Concurrent Doses + SOC Chemoradiation (N = 13)
[8] = Arm 3: RRx-001 pretreatment + 6 concurrent doses + SOC chemoradiation

O=C(CBr)N1CC([N+](=O)[O-])([N+](=O)[O-])C1 [RRx-001, 2-bromo-1-(3,3-dinitroazetidin-1-yl) ethan-1-one]
dose-limiting toxicities and drug-drug interactions ([1]; N. Jayabalan et al. 2023): no dose-limiting toxicities and no drug-drug interactions have been observed
safety and tolerability in humans ([1]; studies from multiple independent groups): safe and well-tolerated
tolerability in prior safety assessments in humans ([1]; with and without concurrent radiation therapy, T. Reid et al. 2015): well-tolerated without significant toxicity
Related anemia ([2]; Arm 1): 0%
neutrophil count decrease ([2]; Arm 1): 0%
related oral dysesthesia ([2]; Arm 1): 0%
related vomiting ([2]; Arm 1): 1%
radiation-induced skin injury ([2]; Arm 1, p=0.0007 vs control): none
Oral pain ([2]; Arm 1, p=0.0095 vs control): 0%
related constipation ([2]; Arm 1, p=0.0095 vs control): 0%
reported adverse events (CTCAEv.4): Anemia [2, 3]: 0 (0)
reported adverse events (CTCAEv.4): Blood creatinine increased [2, 3]: 0 (0)
reported adverse events (CTCAEv.4): Blood urea increased [2, 3]: 0 (0)
reported adverse events (CTCAEv.4): Candida infection [2, 3]: 0 (0)
reported adverse events (CTCAEv.4): Constipation [2, 3]: 0 (0)
reported adverse events (CTCAEv.4): Decreased appetite [2, 3]: 0 (0)
reported adverse events (CTCAEv.4): Dermatitis [2, 3]: 0 (0)
reported adverse events (CTCAEv.4): Dry mouth [2, 3]: 0 (0)
reported adverse events (CTCAEv.4): Dysgeusia [2, 3]: 0 (0)
reported adverse events (CTCAEv.4): Dysphagia [2, 3]: 0 (0)
reported adverse events (CTCAEv.4): Glossodynia [2, 3]: 0 (0)
reported adverse events (CTCAEv.4): Laryngeal inflammation [2, 3]: 0 (0)
reported adverse events (CTCAEv.4): Neutrophil count decreased [2, 3]: 0 (0)
reported adverse events (CTCAEv.4): Oral candidiasis [2, 3]: 1 (8.3)
reported adverse events (CTCAEv.4): Oral dysaesthesia [2, 3]: 0 (0)
reported adverse events (CTCAEv.4): Oral dysesthesia [2, 3]: 0 (0)
reported adverse events (CTCAEv.4): Oral pain [2, 3]: 0 (0)
reported adverse events (CTCAEv.4): Platelet count decreased [2, 3]: 0 (0)
reported adverse events (CTCAEv.4): Radiation skin injury [2, 3]: 0 (0)
reported adverse events (CTCAEv.4): Salivary duct inflammation [2, 3]: 0 (0)
reported adverse events (CTCAEv.4): Vomiting [2, 3]: 1 (8.3)
reported adverse events (CTCAEv.4): Weight decreased [2, 3]: 0 (0)
reported adverse events (CTCAEv.4): White blood cell count decreased [2, 3]: 0 (0)
SAE frequency: Anemia [2, 4]: 8.3%
SAE frequency: Atrial flutter [2, 4]: 8.3%
SAE frequency: Decreased appetite [2, 4]: 8.3%
SAE frequency: Dysgeusia [2, 4]: 8.3%
SAE frequency: Febrile neutropenia [2, 4]: 8.3%
SAE frequency: Hypertension [2, 4]: 8.3%
SAE frequency: Hypoacusis [2, 4]: 8.3%
SAE frequency: Hypokalemia [2, 4]: 8.3%
SAE frequency: Lymphocyte count decreased [2, 4]: 33.3%
SAE frequency: Nausea [2, 4]: 8.3%
SAE frequency: Neutrophil count decreased [2, 4]: 8.3%
SAE frequency: Oropharyngeal pain [2, 4]: 16.7%
SAE frequency: Respiratory tract infection [2, 4]: 8.3%
SAE frequency: Vomiting [2, 4]: 8.3%
SAE frequency: Weight decreased [2, 4]: 8.3%
SAE frequency: White blood cell count decreased [2, 4]: 16.7%
Oral pain ([2]; Arm 2): 9.1%
Related anemia ([2]; Arm 2): 0%
neutrophil count decrease ([2]; Arm 2): 0%
radiation-induced skin injury ([2]; Arm 2): 18.2%
related constipation ([2]; Arm 2): 0%
related oral dysesthesia ([2]; Arm 2): 0%
related vomiting ([2]; Arm 2): 1%
reported adverse events (CTCAEv.4): Anemia [2, 5]: 0 (0)
reported adverse events (CTCAEv.4): Blood creatinine increased [2, 5]: 2 (18.2)
reported adverse events (CTCAEv.4): Blood urea increased [2, 5]: 0 (0)
reported adverse events (CTCAEv.4): Candida infection [2, 5]: 1 (9.1)
reported adverse events (CTCAEv.4): Constipation [2, 5]: 0 (0)
reported adverse events (CTCAEv.4): Decreased appetite [2, 5]: 0 (0)
reported adverse events (CTCAEv.4): Dermatitis [2, 5]: 0 (0)
reported adverse events (CTCAEv.4): Dry mouth [2, 5]: 0 (0)
reported adverse events (CTCAEv.4): Dysgeusia [2, 5]: 0 (0)
reported adverse events (CTCAEv.4): Dysphagia [2, 5]: 0 (0)
reported adverse events (CTCAEv.4): Glossodynia [2, 5]: 0 (0)
reported adverse events (CTCAEv.4): Laryngeal inflammation [2, 5]: 0 (0)
reported adverse events (CTCAEv.4): Neutrophil count decreased [2, 5]: 0 (0)
reported adverse events (CTCAEv.4): Oral candidiasis [2, 5]: 0 (0)
reported adverse events (CTCAEv.4): Oral dysaesthesia [2, 5]: 0 (0)
reported adverse events (CTCAEv.4): Oral dysesthesia [2, 5]: 0 (0)
reported adverse events (CTCAEv.4): Oral pain [2, 5]: 1 (9.1)
reported adverse events (CTCAEv.4): Platelet count decreased [2, 5]: 0 (0)
reported adverse events (CTCAEv.4): Radiation skin injury [2, 5]: 2 (18.2)
reported adverse events (CTCAEv.4): Salivary duct inflammation [2, 5]: 0 (0)
reported adverse events (CTCAEv.4): Vomiting [2, 5]: 1 (9.1)
reported adverse events (CTCAEv.4): Weight decreased [2, 5]: 0 (0)
reported adverse events (CTCAEv.4): White blood cell count decreased [2, 5]: 0 (0)
SAE frequency: Acute kidney injury [2, 6]: 18.2%
SAE frequency: Alanine aminotransferase increased [2, 6]: 9.1%
SAE frequency: Anemia [2, 6]: 9.1%
SAE frequency: Blood creatinine increased [2, 6]: 9.1%
SAE frequency: Candida infection [2, 6]: 9.1%
SAE frequency: Colitis [2, 6]: 9.1%
SAE frequency: Deafness [2, 6]: 9.1%
SAE frequency: Decreased appetite [2, 6]: 9.1%
SAE frequency: Device related thrombosis [2, 6]: 9.1%
SAE frequency: Dysphagia [2, 6]: 9.1%
SAE frequency: Flank pain [2, 6]: 9.1%
SAE frequency: Hypokalemia [2, 6]: 9.1%
SAE frequency: Hypophosphatasemia [2, 6]: 9.1%
SAE frequency: Laryngeal inflammation [2, 6]: 9.1%
SAE frequency: Leukocytosis [2, 6]: 9.1%
SAE frequency: Lymphocyte count decreased [2, 6]: 72.7%
SAE frequency: Nausea [2, 6]: 9.1%
SAE frequency: Neutrophil count decreased [2, 6]: 27.3%
SAE frequency: Oral pain [2, 6]: 9.1%
SAE frequency: Oropharyngeal pain [2, 6]: 9.1%
SAE frequency: Stomatitis [2, 6]: 9.1%
SAE frequency: Sudden death [2, 6]: 9.1%
SAE frequency: White blood cell count decreased [2, 6]: 36.4%
reported adverse events (CTCAEv.4): Anemia [2, 7]: 4 (30.8)
reported adverse events (CTCAEv.4): Blood creatinine increased [2, 7]: 0 (0)
reported adverse events (CTCAEv.4): Blood urea increased [2, 7]: 0 (0)
reported adverse events (CTCAEv.4): Candida infection [2, 7]: 3 (23.1)
reported adverse events (CTCAEv.4): Constipation [2, 7]: 0 (0)
reported adverse events (CTCAEv.4): Decreased appetite [2, 7]: 4 (30.8)
reported adverse events (CTCAEv.4): Dermatitis [2, 7]: 0 (0)
reported adverse events (CTCAEv.4): Dry mouth [2, 7]: 4 (30.8)
reported adverse events (CTCAEv.4): Dysgeusia [2, 7]: 7 (53.8)
reported adverse events (CTCAEv.4): Dysphagia [2, 7]: 2 (15.4)
reported adverse events (CTCAEv.4): Glossodynia [2, 7]: 0 (0)
reported adverse events (CTCAEv.4): Laryngeal inflammation [2, 7]: 0 (0)
reported adverse events (CTCAEv.4): Neutrophil count decreased [2, 7]: 1 (7.7)
reported adverse events (CTCAEv.4): Oral candidiasis [2, 7]: 1 (7.7)
reported adverse events (CTCAEv.4): Oral dysaesthesia [2, 7]: 0 (0)
reported adverse events (CTCAEv.4): Oral dysesthesia [2, 7]: 0 (0)
reported adverse events (CTCAEv.4): Oral pain [2, 7]: 4 (30.8)
reported adverse events (CTCAEv.4): Platelet count decreased [2, 7]: 3 (23.1)
reported adverse events (CTCAEv.4): Radiation skin injury [2, 7]: 4 (30.8)
reported adverse events (CTCAEv.4): Salivary duct inflammation [2, 7]: 1 (7.7)
reported adverse events (CTCAEv.4): Vomiting [2, 7]: 3 (23.1)
reported adverse events (CTCAEv.4): Weight decreased [2, 7]: 2 (15.4)
reported adverse events (CTCAEv.4): White blood cell count decreased [2, 7]: 1 (7.7)
SAE frequency: Complication associated with device [2, 8]: 7.7%
SAE frequency: Decreased appetite [2, 8]: 15.4%
SAE frequency: Dry Mouth [2, 8]: 7.7%
SAE frequency: Dysphagia [2, 8]: 30.8%
SAE frequency: Embolism [2, 8]: 7.7%
SAE frequency: Gastric Perforation [2, 8]: 7.7%
SAE frequency: Gastrointestinal tube insertion [2, 8]: 15.4%
SAE frequency: Hypocalcemia [2, 8]: 7.7%
SAE frequency: Hypokalemia [2, 8]: 7.7%
SAE frequency: Hypophosphatasemia [2, 8]: 7.7%
SAE frequency: Hypotension [2, 8]: 7.7%
SAE frequency: Lung infection [2, 8]: 7.7%
SAE frequency: Lymphocyte count decreased [2, 8]: 53.8%
SAE frequency: Nausea [2, 8]: 7.7%
SAE frequency: Neutrophil count decreased [2, 8]: 30.8%
SAE frequency: Oral dysaesthesia [2, 8]: 7.7%
SAE frequency: Oral dysesthesia [2, 8]: 7.7%
SAE frequency: Oral pain [2, 8]: 7.7%
SAE frequency: Oropharyngeal pain [2, 8]: 7.7%
SAE frequency: Salivary duct inflammation [2, 8]: 7.7%
SAE frequency: Stomatitis [2, 8]: 7.7%
SAE frequency: Swelling face [2, 8]: 7.7%
SAE frequency: Tumor pain [2, 8]: 7.7%
SAE frequency: Vomiting [2, 8]: 7.7%
SAE frequency: Weight decreased [2, 8]: 7.7%
SAE frequency: White blood cell count decreased [2, 8]: 30.8%
incidence of salivary duct inflammation ([2]; Arms 1 and 2, vs control 30%, N.S.): none
incidence of dry mouth ([2]; Arms 1 and 2, vs control 60%, p=0.0028): none
incidence of dysphagia ([2]; Arms 1 and 2, vs control 70%, p=0.0007): none
SAEs attributed to RRx-001 ([2]; PREVLAR): none were attributed to RRx-001
toxicity attributed to RRx-001 ([2]; PREVLAR): discomfort during infusion
weight loss ([2]; RRx-001-treated patients vs control 50%, p=0.0095): none
impact on marrow-related AEs (anemia, neutropenia), renal function or the incidence of candidiasis ([2]; RRx-001 treatment vs control): did not statistically impact
character of toxicity attributable specifically to RRx-001 ([2]; infusion): localized, mild, and transient

From US20260240810A1, “COMPOSITIONS AND METHODS FOR REDUCING ADVERSE SIDE EFFECTS IN CANCER TREATMENT” (priority 2022, published 2026)
